Common to all, as to assay: NCI-60 cell line screen, 48 h
For experiment [1], the system named is CAKI-1 renal.
Experiment [2] relates to NCI-H460 lung.
Experiment [3] deals with HL-60(TB) leukemia.
The test system of experiment [4] is OVCAR-5 ovarian.
The subject of experiment [5] is SK-OV-3 ovarian.
Experiment [6] concerns HCC-2998 colon.
Experiment [7] has as its system SK-MEL-5 melanoma.
The subject of experiment [8] is HCT-15 colon.
The subject of experiment [9] is A549 NSCLC.
Experiment [10] concerns 786-0 renal.
Experiment [11] deals with NCI-H522 lung.

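Test compounds were applied to cells in 96-well plates for 48 hours at 5 doses. TGI marks complete inhibition of growth.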

Turning to `Clc1ccc2c(Cl)nc(-c3ccccc3)nc2c1`, the TGI in experiment [1] is 97.3 µM; in experiment [2] it was above 100 µM; in experiment [3] it was 45.8 µM; in [4], above 100 µM; in experiment [5], 62.3 µM; in [6], above 100 µM. For the same compound, in experiment [7], the TGI was 82.4 µM.

Consider `NN/C(=N\S(=O)(=O)c1cccc2nsnc12)Nc1ccc(Cl)cc1`, for which the TGI in experiment [1], in experiment [2], in experiment [3], in [4], in [8] and in experiment [5] was above 100 µM in each case. In addition, the TGI in experiment [9], in [10] and in [7] was above 100 µM each time.

In the case of `Nc1ccc(-c2nc3ccccc3s2)cc1F`, the TGI was 54.4 µM in [1]; above 100 µM in [8]; above 100 µM in [5]; above 100 µM in [11]; above 100 µM in experiment [9]; 50.2 µM in experiment [10]. This compound showed a TGI in [7] of 40.9 µM.

On to `Cc1cc(=O)[nH]c(NN2C(Cl)C(=O)C2c2c(O)ccc3ccccc23)n1` (configuration not stated), for which the TGI in [2] was 29.6 µM; in [3], 49.3 µM; in [4], above 100 µM; in [8], 36.9 µM; in [6], 32.6 µM; in [9] it was above 100 µM. The TGI in experiment [7] was 29.9 µM.

For `Nc1ccc(-c2nc3ccc(Cc4ccc5nc(-c6ccc(N)cc6)oc5c4)cc3o2)cc1`, the TGI in [1], in experiment [2], in [4], in experiment [8], in experiment [5] and in [6] was above 100 µM throughout. Further, the TGI in experiment [11], in experiment [9] and in experiment [10] was above 100 µM each time.

As to `O=C(/C=C/c1ccc(O)cc1)c1cc(O)cc(O)c1`, the TGI in experiment [1] was 43.8 µM; in experiment [3], above 100 µM; in experiment [4], 29 µM; in [8], 16.9 µM; in [5], 42.4 µM; in [11] it was 18.1 µM. Besides, the figures for the TGI in experiment [9], in experiment [10] and in experiment [7] were 30.6 µM, 30.6 µM and 28.9 µM, respectively.

`CC(C)N(C(=O)c1ccc(NCc2cc(O)ccc2O)cc1)C(C)C`: the TGI in [1] is 27.2 µM; in experiment [2] it was 34.6 µM; in experiment [3], above 100 µM; in experiment [4], 43.8 µM; in experiment [8] it was 33.6 µM; in [5], above 100 µM. Moreover, the TGI is above 100 µM in experiment [9], 26.6 µM in experiment [10] and 37.8 µM in experiment [7].

For the compound `N#Cc1nc(C2SCCCS2)oc1N`, the TGI in experiment [1], in [3], in experiment [4], in [8], in [5] and in experiment [9] was above 100 µM throughout. Besides, the TGI in experiment [10] and in [7] was above 100 µM throughout.

Take `CCOC(=O)NC(C(C(=O)OCC)C(=O)OCC)(C(F)(F)F)C(F)(F)F`: the TGI in experiment [1], in experiment [2], in [3], in experiment [4], in experiment [8] and in experiment [11] was above 100 µM throughout. For the same compound, the TGI in experiment [9], in experiment [10] and in [7] was above 100 µM each time.

Turning to `C=CCN1C[C@@H](C)N([C@@H](c2ccccc2)c2ccc(C(=O)N(CC)CC)cc2)C[C@@H]1C`, the TGI in experiment [1], in experiment [3], in experiment [4], in experiment [8], in [5] and in experiment [11] was above 100 µM throughout. For the same compound, the TGI in experiment [9], in experiment [10] and in experiment [7] was above 100 µM throughout.

In the case of `O=C(Nc1ccc(N2C(=O)CSC2c2cccs2)cc1)c1ccc(N2C(=O)CSC2c2cccs2)cc1` (configuration not stated), the TGI in [1], in experiment [2], in experiment [4], in experiment [8], in experiment [5] and in [6] was above 100 µM each time. For the same compound, the TGI in [11], in experiment [9], in experiment [10] and in experiment [7] was above 100 µM each time.

On to `CN(C)C(=O)C(F)(F)C(c1ccc(C(F)(F)F)cc1)C1C(=O)N(C)C(=O)N(C)C1=O` (configuration not stated), for which the TGI in [1], in experiment [2], in [4], in experiment [8], in experiment [5] and in experiment [6] was above 100 µM throughout. Besides, the TGI in experiment [9], in [10] and in experiment [7] was above 100 µM each time.

In the case of `O=C1Cc2c(-c3ccccc3)cc(-c3ccc4ccccc4c3)nc2-c2ccccc2N1`, the TGI in [1] was 12.5 µM; in experiment [2], 87.6 µM; in experiment [4], above 100 µM; in experiment [8], above 100 µM; in experiment [5], above 100 µM; in experiment [6], above 100 µM. In addition, the TGI is 26.1 µM in experiment [11], above 100 µM in experiment [9], above 100 µM in experiment [10] and above 100 µM in experiment [7].

Turning to `CC(=O)OC(C#N)CC(C)(C)/[N+]([O-])=[N+](\[O-])C(C)(C)CC(C#N)OC(C)=O` (configuration not stated), the TGI is 30.7 µM in experiment [1]; 35 µM in experiment [2]; 95.4 µM in experiment [4]; 25.5 µM in [8]; above 100 µM in experiment [5]; 31.6 µM in experiment [6]. For the same compound, the TGI is 23.9 µM in [11], above 100 µM in experiment [9], 24.7 µM in experiment [10] and 33.9 µM in experiment [7].

Turning to `COc1cc2c(cc1O)-c1c(OC)c(O)cc3c1C(C2)N(C)CC3` (configuration not stated), the TGI in experiment [1], in experiment [2], in experiment [3], in [4], in [8] and in experiment [5] was above 100 µM each time. Moreover, the TGI in [11], in [9], in experiment [10] and in [7] was above 100 µM each time.

The record behind these values is PubChem BioAssay (NCI).
